target: T1, Human MrgprX2 (Homo sapiens, UniProt Q96LB1); assay: Human MrgprX2 antagonist FLIPR intracellular calcium mobilization assay; format: cell-based; details: antagonist activity, recombinant hMrgpMRGPRX2 expressing cells, read-out: Human MrgprX2 Antagonist pIC50 (converted)
T1 construct: expressed in transfected cells
T1 sequence (Q96LB1 1-330): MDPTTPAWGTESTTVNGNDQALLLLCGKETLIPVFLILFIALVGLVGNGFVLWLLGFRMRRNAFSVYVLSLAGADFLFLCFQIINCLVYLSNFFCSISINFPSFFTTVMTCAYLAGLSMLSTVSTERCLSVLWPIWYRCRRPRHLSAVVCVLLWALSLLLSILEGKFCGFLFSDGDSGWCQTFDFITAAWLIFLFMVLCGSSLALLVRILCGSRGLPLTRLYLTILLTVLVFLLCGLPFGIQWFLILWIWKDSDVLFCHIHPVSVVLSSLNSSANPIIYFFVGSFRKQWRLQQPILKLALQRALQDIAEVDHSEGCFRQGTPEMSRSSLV
From the text: Potent and selective hMrgpMRGPRX2 compounds have been generated from compounds identified during a high throughput screening (HTS) campaign and followed up with cycles of structure activity based medicinal chemistry efforts. These compounds were characterized in recombinant hMrgpMRGPRX2 expressing cells for their antagonist activity and the potency was confirmed in the human mast cell line LAD-2, where the target is endogenously expressed. The assays used to determine potencies are functional read-out looking at intracellular calcium mobilization using the FLIPR™ technology. In these FLIPR assays, we test the identified compounds using recombinant cellular systems expressing mouse MrgprB2, mouse MrgprA1, gerbil MrgpMRGPRX2 orthologue, Chinese hamster MrgpMRGPRX2 orthologue and cynomolgus monkey MrgpMRGPRX2 orthologue, respectively for orthologue activity.

SMILES | IC50
CC1(C(=O)Nc2ncc(Cc3ccc(F)c(F)c3)s2)CCOCC1 [Compound E045] | 158 nM
CC1(C(=O)Nc2ncc(Cc3cc(F)cc(F)c3)s2)CCOC1 (stereo not drawn) [Compound E046, N-[5-[(3,5-difluorophenyl)methyl]thiazol-2-yl]-3-methyl-tetrahydrofuran-3-carboxamide] | 5.01 nM
CC1(C(=O)Nc2ncc(Cc3cc(F)cc(F)c3)s2)COC1 [Compound E047] | 25.1 nM
CN1CCC[C@@H]1C(=O)Nc1ncc(Cc2cccc(F)c2)s1 [Compound E054, (2R)—N-[5-[(3-fluorophenyl)methyl]thiazol-2-yl]-1-methyl-pyrrolidine-2-carboxamide] | 39.8 nM
CC(=O)N1CCC[C@@H]1C(=O)Nc1ncc(Cc2cccc(F)c2)s1 [Compound E055, (2R)-1-acetyl-N-[5-[(3-fluorophenyl)methyl]thiazol-2-yl]pyrrolidine-2-carboxamide] | 3980 nM
CS(=O)(=O)N1CCC[C@@H]1C(=O)Nc1ncc(Cc2cccc(F)c2)s1 [Compound E056, (2R)—N-[5-[(3-fluorophenyl)methyl]thiazol-2-yl]-1-methylsulfonyl-pyrrolidine-2-carboxamide] | 1580 nM
NS(=O)(=O)N1CCC[C@@H]1C(=O)Nc1ncc(Cc2cccc(F)c2)s1 [Compound E057, (2R)—N-[5-[(3-fluorophenyl)methyl]thiazol-2-yl]-1-sulfamoyl-pyrrolidine-2-carboxamide] | 31.6 nM
CN1CCC[C@H]1C(=O)Nc1ncc(Cc2cccc(F)c2)s1 [Compound E058, (2S)—N-[5-[(3-fluorophenyl)methyl]thiazol-2-yl]-1-methyl-pyrrolidine-2-carboxamide] | 126 nM
CC(=O)N1CCC(C)(C(=O)Nc2ncc(Cc3ccccc3F)s2)CC1 [Compound E059, 1-acetyl-N-[5-[(2-fluorophenyl)methyl]thiazol-2-yl]-4-methyl-piperidine-4-carboxamide] | 3160 nM
CC1(C(=O)Nc2ncc(Cc3ccccc3F)s2)CCN(S(C)(=O)=O)CC1 [Compound E060, N-[5-[(2-fluorophenyl)methyl]thiazol-2-yl]-4-methyl-1-methylsulfonyl-piperidine-4-carboxamide] | 2510 nM
C[C@]1(C(=O)Nc2ncc(Cc3cccc(F)c3)s2)CCCN1 [Compound E061, (2R)—N-[5-[(3-fluorophenyl)methyl]thiazol-2-yl]-2-methyl-pyrrolidine-2-carboxamide] | 2000 nM
NS(=O)(=O)N1CCC[C@H]1C(=O)Nc1ncc(Cc2cccc(F)c2)s1 [Compound E062] | 3980 nM
C[C@]1(C(=O)Nc2ncc(Cc3cccc(F)c3)s2)CCCN1S(N)(=O)=O [Compound E063] | 3.16 nM
CC1(C(=O)Nc2ncc(Cc3ccccc3F)s2)CCN(S(N)(=O)=O)C1 (stereo not drawn) [Compound E064] | 631 nM
NS(=O)(=O)N1CC[C@@H]1C(=O)Nc1ncc(Cc2cccc(F)c2)s1 [Compound E065] | 79.4 nM
NS(=O)(=O)N1CCCC[C@@H]1C(=O)Nc1ncc(Cc2cccc(F)c2)s1 [Compound E066] | 31.6 nM
CN(CC(=O)Nc1ncc(Cc2cccc(F)c2)s1)S(N)(=O)=O [Compound E067] | 10000 nM
C[C@H](C(=O)Nc1ncc(Cc2cccc(F)c2)s1)N(C)S(N)(=O)=O [Compound E068] | 631 nM
CC[C@H](C(=O)Nc1ncc(Cc2cccc(F)c2)s1)N(C)S(N)(=O)=O [Compound E069] | 1580 nM
CC1(C(=O)Nc2ncc(Oc3cccc(F)c3)s2)CCOCC1 [Compound E070, N-[5-(3-fluorophenoxy)thiazol-2-yl]-4-methyl-tetrahydropyran-4-carboxamide] | 5.01 nM

SMILES | IC50
CC(C)C(=O)Nc1ncc(Oc2cccnc2)s1 [Compound E071] | 6310 nM
CC(C)C(=O)Nc1ncc(Nc2ccccc2)s1 [Compound E072] | 1260 nM
CC(C)C(=O)Nc1ncc(N(C)c2ccccc2)s1 [Compound E073] | 1580 nM
CC(C)C(=O)Nc1ncc(Oc2ccc(F)cc2)s1 [Compound E074] | 10 nM
CC(C)C(=O)Nc1ncc(Oc2ccccc2F)s1 [Compound E075] | 31.6 nM
CC(C)C(=O)Nc1ncc(Oc2cccc(F)c2)s1 [Compound E076] | 1.26 nM
CC1(C(=O)Nc2ncc(Oc3ccc(F)cc3)s2)CCOCC1 [Compound E077] | 39.8 nM
CC1(C(=O)Nc2ncc(Oc3cccc(F)c3)s2)CCOC1 (stereo not drawn) [Compound E078, N-[5-(3-fluorophenoxy)thiazol-2-yl]-3-methyl-tetrahydrofuran-3-carboxamide] | 2.51 nM
CC1(C(=O)Nc2ncc(Oc3cccc(Cl)c3)s2)CCOCC1 [Compound E079] | 3.98 nM
CC1(C(=O)Nc2ncc(Oc3cncc(F)c3)s2)CCOCC1 [Compound E080] | 501 nM
CC(C)C(=O)Nc1nc(C#N)c(Oc2ccc(F)cc2)s1 [Compound E081] | 2510 nM
CC(C)(C)OC(=O)N1CCC[C@@H]1C(=O)Nc1ncc(Oc2ccccc2)s1 [Compound E082, tert-butyl (2R)-2-[(5-phenoxythiazol-2-yl)carbamoyl]pyrrolidine-1-carboxylate] | 1260 nM
O=C(Nc1ncc(Oc2ccccc2)s1)[C@H]1CCCN1 [Compound E085, (2R)—N-(5-phenoxythiazol-2-yl)pyrrolidine-2-carboxamide] | 2510 nM
NS(=O)(=O)N1CCC[C@@H]1C(=O)Nc1ncc(Oc2ccccc2)s1 [Compound E086, (2R)—N-(5-phenoxythiazol-2-yl)-1-sulfamoyl-pyrrolidine-2-carboxamide] | 15.8 nM
CN1CCC[C@@H]1C(=O)Nc1ncc(Oc2ccc(C#N)cc2)s1 [Compound E087, (2R)—N-[5-(4-cyanophenoxy)thiazol-2-yl]-1-methyl-pyrrolidine-2-carboxamide] | 2510 nM
CCN1CCC[C@@H]1C(=O)Nc1ncc(Oc2ccc(C#N)cc2)s1 [Compound E088, (2R)—N-[5-(4-cyanophenoxy)thiazol-2-yl]-1-ethyl-pyrrolidine-2-carboxamide] | 3160 nM
NS(=O)(=O)N1CCC[C@@H]1C(=O)Nc1ncc(Oc2ccc(F)cc2)s1 [Compound E089, (2R)—N-[5-(4-fluorophenoxy)thiazol-2-yl]-1-sulfamoyl-pyrrolidine-2-carboxamide] | 25.1 nM
N#Cc1cc(F)cc(Oc2cnc(NC(=O)[C@H]3CCCN3S(N)(=O)=O)s2)c1 [Compound E090, (2R)—N-[5-(3-cyano-5-fluoro-phenoxy)thiazol-2-yl]-1-sulfamoyl-pyrrolidine-2-carboxamide] | 31.6 nM
N#Cc1ccc(Oc2cnc(NC(=O)[C@H]3CCCN3S(N)(=O)=O)s2)cc1 [Compound E091, (2R)—N-[5-(4-cyanophenoxy)thiazol-2-yl]-1-sulfamoyl-pyrrolidine-2-carboxamide] | 1580 nM
CC1(C(=O)Nc2ncc(Cc3cc(F)ccc3F)s2)CCOCC1 [Compound E092, N-[5-[(2,5-difluorophenyl)methyl]thiazol-2-yl]-4-methyl-tetrahydropyran-4-carboxamide] | 100 nM

SMILES | IC50
CC(C)C(=O)Nc1ncc(Cc2cc(F)ccc2F)s1 [Compound E093] | 6.31 nM
CC(C)C(=O)Nc1ncc(Cc2cccc(F)c2F)s1 [Compound E094] | 7.94 nM
CC1(C(=O)Nc2ncc(Cc3cccc(F)c3F)s2)CCOCC1 [Compound E095] | 158 nM
CC1(C(=O)Nc2ncc(Cc3cc(F)ccc3F)s2)COC1 [Compound E096] | 50.1 nM
CC1(C(=O)Nc2ncc(CC3CCCC3)s2)CCOCC1 [Compound E097] | 2000 nM
CCN(C[C@H](C)O)C(=O)Nc1ncc(Cc2cccc(Cl)c2)s1 [Compound E098, 3-[5-[(3-chlorophenyl)methyl]thiazol-2-yl]-1-ethyl-1-[(2S)-2-hydroxypropyl]urea] | 3.16 nM
CC(O)CN(C)C(=O)Nc1ncc(Cc2ccccc2F)s1 (stereo not drawn) [Compound E099] | 398 nM
C[C@@H](O)CN(C)C(=O)Nc1ncc(Cc2cccc(F)c2)s1 [Compound E100] | 251 nM
C[C@H](O)CN(C)C(=O)Nc1ncc(Cc2cccc(F)c2)s1 [Compound E101] | 39.8 nM
C[C@H](O)CN(C)C(=O)Nc1ncc(Cc2ccccc2F)s1 [Compound E102] | 251 nM
C[C@@H](O)CN(C)C(=O)Nc1ncc(Cc2ccccc2F)s1 [Compound E103] | 1260 nM
O=C(Nc1ncc(Cc2cccc(F)c2)s1)N1CCCC1CO (stereo not drawn) [Compound E104] | 316 nM
CN(CC(O)C(F)(F)F)C(=O)Nc1ncc(Cc2cccc(F)c2)s1 (stereo not drawn) [Compound E105] | 15.8 nM
CN(CC(O)CO)C(=O)Nc1ncc(Cc2cccc(F)c2)s1 (stereo not drawn) [Compound E106] | 3160 nM
C[C@H]1CN(C(=O)Nc2ncc(Cc3cccc(F)c3)s2)CCO1 [Compound E107] | 3980 nM
CN(CC(C)(C)O)C(=O)Nc1ncc(Cc2cccc(F)c2)s1 [Compound E108] | 1.58 nM
CN(C[C@H](O)C(F)(F)F)C(=O)Nc1ncc(Cc2cccc(F)c2)s1 [Compound E109] | 25.1 nM
CCN(CC(C)O)C(=O)Nc1ncc(Cc2cccc(F)c2)s1 (stereo not drawn) [Compound E110] | 0.501 nM
CN(C[C@@H](O)C(F)(F)F)C(=O)Nc1ncc(Cc2cccc(F)c2)s1 [Compound E111] | 3.16 nM
O=C(Nc1ncc(Cc2cccc(F)c2)s1)N1CC[C@H](CO)C1 [Compound E112] | 794 nM

— patent US12502380B2, “MrgprX2 antagonists for the treatment of inflammatory disorders” (Dermira, Inc., priority 2019, dated 2025)
